Reference: patent publication US11912723B2, “KRAS modulators and uses thereof” (Quanta Therapeutics, Inc., priority 2022, dated 2024)

Key:
[1] = tested on: AGS (KRAS G12D) cells, phospho-ERK; assay: pERK In Cell Western (ICW) assay (Method B); format: cell-based; settings: Homo sapiens, 3 hours
How it was run: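 AGS cells seeded at 5,000/well, grown overnight, then treated 3 h at 37 °C with ½-log 10-point dilutions (top 10 μM). Fixed cells stained for phospho-ERK, normalized to DRAQ5 DNA signal and to DMSO control; IC50 from 4-parameter variable-slope fit.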

[2] = molecular target: T1, GST-tagged KRAS G12D (2-169) (Homo sapiens, UniProt P01116, G12D); assay: Nucleotide exchange assay (NEA), HTRF of SOS-mediated GTP-DY-647P1 binding; format: biochemical; settings: 5 nM GST-KRAS G12D, 20 nM SOScat, 150 nM GTP; compound 1 h at RT
T1 construct: GST-tagged KRAS^G12D (2-169, Reaction Biology, MSC-11-539); purchased Reaction Biology MSC-11-539 (KRAS G12D); MSC-11-502 (SOS1cat)
T1 sequence (P01116 2-169 isoform P01116-2 G12D): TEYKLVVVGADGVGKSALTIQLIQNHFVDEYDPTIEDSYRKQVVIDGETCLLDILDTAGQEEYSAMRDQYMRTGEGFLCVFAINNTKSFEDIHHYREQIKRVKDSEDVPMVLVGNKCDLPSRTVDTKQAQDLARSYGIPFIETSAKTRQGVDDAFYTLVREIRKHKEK
How it was run: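 After 1 h RT preincubation of compound with KRAS, SOS1cat (20 nM final) and fluorescent GTP analog (150 nM) were added to 5 nM KRAS; HTRF (anti-GST Tb donor) followed at RT for up to 90 min. % inhibition relative to DMSO and no-SOS1 blank, 4-parameter curve fit.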

How did the IC50 [1] turn out when `CN(C)C(=O)c1nn2c(c1Cl)CN(c1nc(OC[C@@]34CCCN3C[C@H](F)C4)nc3c1CN(C)[C@@]1(CCc4cccc(O)c41)C3)CCC2` [Compound 96, 3-chloro-5-[(7S)-2-[[(2R,8S)-2-fluoro-1,2,3,5,6,7-hexahydropyrrolizin-8-yl]methoxy]-7′-hydroxy-6-methyl-spiro[5,8-dihydropyrido[4,3-d]pyrimidine-7,1′-indane]-4-yl]-N,N-dimethyl-4,6,7,8-tetrahydropyrazolo[1,5-a][1,4]diazepine-2-carboxamide] was run?
The IC50 was 0.01 to 0.1 µM.

What about the IC50 [2] of the same molecule?
The IC50 was < 10 nM.

What does the source list for `CN(C)CC1(COc2nc3c(c(N4CCCn5nc(C(=O)N(C)C)c(Cl)c5C4)n2)CN(C)[C@@]2(CCCc4ccccc42)C3)CC1(F)F` (stereo partly drawn) [Compound 97, 3-chloro-5-[(7S)-2-[[1-[(dimethylamino)methyl]-2,2-difluoro-cyclopropyl]methoxy]-6-methyl-spiro[5,8-dihydropyrido[4,3-d]pyrimidine-7,1′-tetralin]-4-yl]-N,N-dimethyl-4,6,7,8-tetrahydropyrazolo[1,5-a][1,4]diazepine-2-carboxamide]?
IC50 [1]: 1 to 10 µM; IC50 [2]: < 10 nM

With `CN1Cc2c(nc(OC[C@@]34CCCN3C[C@H](F)C4)nc2N2CCCn3nc(-c4nnnn4C)c(Cl)c3C2)C[C@]12CCCc1ccccc12` [Compound 99, (7S)-4-[3-chloro-2-(1-methyltetrazol-5-yl)-4,6,7,8-tetrahydropyrazolo[1,5-a][1,4]diazepin-5-yl]-2-[[(2R,8S)-2-fluoro-1,2,3,5,6,7-hexahydropyrrolizin-8-yl]methoxy]-6-methyl-spiro[5,8-dihydropyrido[4,3-d]pyrimidine-7,1′-tetralin]] as the molecule, how does the IC50 [1] read?
Its IC50 is 0.1 to 1 µM.

And the IC50 [2]?
The IC50 was < 10 nM.
